Experimental data: patent publication US20140051679A1, “KINASE INHIBITORS AND METHOD OF TREATING CANCER WITH SAME” (UNIVERISTY HEALTH NETWORKS, priority 2011, published 2014)

Legend:
[1] = system: HT29 colon cancer cells; assay: Cell growth inhibition, Sulforhodamine B assay, HT29; assay type: cell-based; conditions: Homo sapiens, HT-29, 120 h, 5 days culture, SRB assay, read-out: Cell Line GI50 Range HT29
Experimental: Breast cancer cells (MDA-MB-231, MDA-MB-468), colon cancer cells (HCT116, HT29) and ovarian cancer cells (PA-1, OVCAR-3) were seeded (1000 to 4000 in 80 μl per well depending on the cell growth rate) into 96 well plates 24 hours before compound overlay. Compounds were prepared as 10 mM stock solutions in 100% DMSO which were diluted with DMEM (Dulbecco's Modified Eagle's Medium) cell growth Medium (Invitrogen, Burlington, ON, Canada) containing 10% FBS (Fetal Bovine Serum) to concentrations ranging from 50 nM to 250 μM. Aliquots (20 μl) from each concentration were overlaid to 80 μl of the pre-seeded cells in the 96 well plates to make final concentrations of 10 nM to 50 μM. The cells were cultured for 5 days before the Sulforhodamine B assay (SRB) was performed to determine the compound's cell growth inhibition activity.
Sulforhodamine B (purchased from Sigma, Oakville, ON, Canada) is a water-soluble dye that binds to the basic amino acids of the cellular proteins. Thus, colorimetric measurement of the bound dye provides an estimate of the total protein mass that is related to the cell number. the cells are fixed in situ by gently aspirating off the culture media and adding 50 μl ice cold 10% Trichloroacetic Acid (TCA) per well and incubate at 4° C. for 30-60 min, The plates are washed with water five times and allowed to air dry for 5 min. Addition of 50 μl 0.4% (w/v) SRB solution in 1% (v/v) acetic acid to each well and incubatation for 30 min at RT completes the staining reaction. Following staining, plates are washed four times with 1% acetic acid to remove unbound dye and then allowed to air dry for 5 min. The stain is solubilized with 100 μl of 10 mM Tris pH 10.5 per well. Absorbance is read at 570 nm.
The percentage (%) of relative growth inhibition was calculated by comparing to DMSO treated only cells (100%). […] The GI50 was calculated using GraphPad PRISM software (GraphPad Software, Inc., San Diego, Calif., USA).

[2] = system: HCT116 colon cancer cells; assay: Cell growth inhibition, Sulforhodamine B assay, HCT116; assay type: cell-based; conditions: Homo sapiens, HCT-116, 120 h, 5 days culture, SRB assay, read-out: Cell Line GI50 Range HCT116
[3] = system: MDA-MB-468 breast cancer cells; assay: Cell growth inhibition, Sulforhodamine B assay, MDA-MB-468; assay type: cell-based; conditions: Homo sapiens, 120 h, 5 days culture, SRB assay, read-out: Cell Line GI50 Range MDA-MB-468
[4] = biological target: T1, human PLK4 (Homo sapiens, UniProt O00444); assay: PLK4 inhibition assay (indirect ELISA); assay type: biochemical; conditions: GST-PLK4 4 nM, 15 μM ATP; read-out: IC50 Ranges PLK4
T1 construct: amino terminal GST fusion of residues 1-391 of human PLK4; made in house; host or cells: E. coli
T1 sequence (O00444 1-391): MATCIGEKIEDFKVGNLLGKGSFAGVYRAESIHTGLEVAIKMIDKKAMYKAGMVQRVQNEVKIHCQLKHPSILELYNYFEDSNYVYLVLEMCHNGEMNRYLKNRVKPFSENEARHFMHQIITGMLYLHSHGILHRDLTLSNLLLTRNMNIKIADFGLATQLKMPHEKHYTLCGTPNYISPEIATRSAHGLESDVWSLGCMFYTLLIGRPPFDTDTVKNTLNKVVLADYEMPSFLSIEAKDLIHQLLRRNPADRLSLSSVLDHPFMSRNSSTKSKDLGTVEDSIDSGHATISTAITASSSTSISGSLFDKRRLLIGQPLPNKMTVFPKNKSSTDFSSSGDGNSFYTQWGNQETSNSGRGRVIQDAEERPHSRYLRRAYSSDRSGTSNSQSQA
Experimental: Active PLK4 was purified from an E. coli expression system as an amino terminal GST fusion of residues 1-391 of human PLK4. The protein was purified from clarified cell extracts after induction at 15° C. overnight using glutathione sepharose, gel permeation chromatography, and ion exchange (Resource Q). The resulting protein was dephosphorylated with lambda phosphatase (NEB cat#P0753), and resolved from the phosphatase using gluthione sepharose. The dephosphorylated GST-PLK4 was stored in aliquots at −80° C. until use.
PLK4 activity was measured using an indirect ELISA detection system. GST-PLK4 (4 nM) was incubated in the presence of 15 μM ATP (Sigma cat#A7699), 50 mM HEPES-Na^2+ pH 7.5, 10 mM MgCl2, 0.01% Brij 35 (Sigma cat#03-3170), in a 96 well microtitre plate pre-coated with MBP (Millipore cat#30-011). The reaction was allowed to proceed for 30 minutes, followed by 5 washes of the plate with Wash Buffer (phosphate buffered saline supplemented with 0.2% Tween 20), and incubation for 30 minutes with a 1:3000 dilution of primary antibody (Cell Signaling cat#9381). The plate was washed 5 times with Wash Buffer, incubated for 30 minutes in the presence of secondary antibody coupled to horse radish peroxidase (BioRad cat#1721019, 1:3000 concentration), washed an additional 5 times with Wash Buffer, and incubated in the presence of TMB substrate (Sigma cat#T0440). The colourimetric reaction was allowed to continue for 5 minutes, followed by addition of stop solution (0.5 N sulphuric acid), and quantified by detection at 450 nm with either a monochromatic or filter based plate reader (Molecular Devices M5 or Beckman DTX880, respectively).
Compound inhibition was determined at either a fixed concentration (10 μM) or at a variable inhibitor concentration (typically 0.5 μM to 0.001 μM in a 10 point dose response titration). Compounds were pre-incubated in the presence of enzyme for 15 minutes prior to addition of ATP and the activity remaining quantified using the above described activity assay. The % Inhibition of a compound was determined using the following formula; % Inhibition=100×(1-(experimental value−background value)/(high activity control−background value)). The IC50 value was determined using a non-linear 4 point logistic curve fit (XLfit4, IDBS) with the formula; (A+(B/(1+((x/C)̂D)))), where A=background value, B=range, C=inflection point, D=curve fit parameter.

[5] = biological target: T2, human TTK (Homo sapiens, UniProt P33981); assay: TTK inhibition assay (indirect ELISA); assay type: biochemical; conditions: GST-TTK 0.68 nM, 16 μM ATP; read-out: IC50 Ranges TTK
T2 construct: amino terminal GST fusion of full length human TTK; purchased Invitrogen
T2 sequence (P33981 1-857): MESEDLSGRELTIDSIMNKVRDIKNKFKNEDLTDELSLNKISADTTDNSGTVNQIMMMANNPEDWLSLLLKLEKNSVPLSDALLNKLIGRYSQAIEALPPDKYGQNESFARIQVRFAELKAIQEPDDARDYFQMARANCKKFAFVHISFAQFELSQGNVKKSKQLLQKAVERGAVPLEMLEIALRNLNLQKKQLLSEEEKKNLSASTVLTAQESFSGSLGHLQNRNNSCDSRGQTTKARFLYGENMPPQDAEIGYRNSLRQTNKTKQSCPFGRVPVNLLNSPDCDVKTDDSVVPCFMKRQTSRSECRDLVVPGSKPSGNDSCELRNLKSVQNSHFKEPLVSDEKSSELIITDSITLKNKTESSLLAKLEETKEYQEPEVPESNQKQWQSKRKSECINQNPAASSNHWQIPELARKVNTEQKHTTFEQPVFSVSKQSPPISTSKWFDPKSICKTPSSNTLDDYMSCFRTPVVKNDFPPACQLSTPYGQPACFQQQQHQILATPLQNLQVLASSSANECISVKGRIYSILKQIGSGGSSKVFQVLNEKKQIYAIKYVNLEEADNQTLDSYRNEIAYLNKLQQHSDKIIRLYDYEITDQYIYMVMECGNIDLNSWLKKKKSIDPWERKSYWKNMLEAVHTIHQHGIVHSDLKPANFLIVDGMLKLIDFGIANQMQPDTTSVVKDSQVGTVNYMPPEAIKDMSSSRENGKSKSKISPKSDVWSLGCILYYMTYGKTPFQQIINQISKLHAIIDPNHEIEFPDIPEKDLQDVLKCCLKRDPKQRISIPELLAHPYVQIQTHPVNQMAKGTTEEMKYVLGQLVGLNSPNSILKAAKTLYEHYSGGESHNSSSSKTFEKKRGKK

[6] = biological target: T3, Aurora B (Homo sapiens, UniProt Q96GD4); assay: Aurora B inhibition assay (Z-Lyte); assay type: biochemical; conditions: 28 nM Aurora B, 128 μM ATP; read-out: IC50 Ranges Aurora B
T3 construct: purchased Invitrogen PV3970
Experimental: Aurora B inhibition was determined using the Z-Lyte assay kit from Invitrogen. The assay was performed using the recommended manufacturer's instructions with 128 μM ATP and 28 nM Aurora B (Invitrogen cat #PV3970). The % inhibition values were determined according to the manufacturer's directions and IC50 values were obtained using a non-linear 4 point logistic curve fit (XLfit4, IDBS)

T3 sequence (Q96GD4 whole entry): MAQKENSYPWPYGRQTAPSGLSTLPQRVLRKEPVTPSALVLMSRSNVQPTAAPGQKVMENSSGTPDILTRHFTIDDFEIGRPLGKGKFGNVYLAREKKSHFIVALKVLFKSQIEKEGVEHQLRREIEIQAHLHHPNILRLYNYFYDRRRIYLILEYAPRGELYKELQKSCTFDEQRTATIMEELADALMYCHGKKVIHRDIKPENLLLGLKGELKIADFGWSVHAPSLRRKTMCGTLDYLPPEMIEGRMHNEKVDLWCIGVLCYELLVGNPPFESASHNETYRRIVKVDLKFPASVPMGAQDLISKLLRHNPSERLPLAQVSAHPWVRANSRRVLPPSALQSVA

COC(C(=O)Nc1ccc2[nH]nc(-c3ccc(OC4CCN(C)CC4)cc3)c2c1)c1ccsc1 (stereo not drawn) [Example A37, 2-methoxy-N-(3-(4-((1-methylpiperidin-4-yl)oxy)phenyl)-1H-indazol-5-yl)-2-(thiophen-3-yl)acetamide]
≤ 5 µM: GI50 [1] | GI50 [2] | GI50 [3] | IC50 [4] | IC50 [5] | IC50 [6]

CN1CCC(Oc2ccc(-c3n[nH]c4ccc(NC(=O)C5c6ccccc6CCN5C)cc34)cc2)CC1 (stereo not drawn) [Example A39, 2-methyl-N-(3-(4-((1-methylpiperidin-4-yl)oxy)phenyl)-1H-indazol-5-yl)-1,2,3,4-tetrahydroisoquinoline-1-carboxamide]
≤ 5 µM: GI50 [1] | GI50 [2] | GI50 [3] | IC50 [4] | IC50 [5] | IC50 [6]

C[C@H]1CCCN1[C@H](C(=O)Nc1ccc2[nH]nc(-c3ccc(N4CCOCC4)cc3)c2c1)c1ccsc1 [Example A47, (S)-2-((S)-2-methylpyrrolidin-1-yl)-N-(3-(4-morpholinophenyl)-1H-indazol-5-yl)-2-(thiophen-3-yl)acetamide]
≤ 5 µM: GI50 [1] | GI50 [2] | GI50 [3] | IC50 [4] | IC50 [5] | IC50 [6]

O=C(N[C@H](c1ccccc1)C1CC1)c1ccc2[nH]nc(-c3ccc(N4CCOCC4)cc3)c2c1 [Example A49, (S)—N-(cyclopropyl(phenyl)methyl)-3-(4-morpholinophenyl)-1H-indazole-5-carboxamide]
≤ 5 µM: GI50 [1] | GI50 [2] | GI50 [3] | IC50 [4] | IC50 [5] | IC50 [6]

O=CN1CCC(Oc2ccc(-c3n[nH]c4ccc(C(=O)N[C@@H](c5ncccc5Cl)C5CC5)cc34)cc2)CC1 [Example A211, (R)—N-((3-chloropyridin-2-yl)(cyclopropyl)methyl)-3-(4-((1-formylpiperidin-4-yl)oxy)phenyl)-1H-indazole-5-carboxamide]
≤ 5 µM: IC50 [4] | IC50 [5] | IC50 [6]

O=CN1CCC(Oc2ccc(-c3n[nH]c4ccc(C(=O)N[C@H](c5ncccc5Cl)C5CC5)cc34)cc2)CC1 [Example A212, (S)—N-((3-chloropyridin-2-yl)(cyclopropyl)methyl)-3-(4-((1-formylpiperidin-4-yl)oxy)phenyl)-1H-indazole-5-carboxamide]
≤ 5 µM: IC50 [4] | IC50 [5] | IC50 [6]

CN1[C@@H]2CC[C@H]1C[C@@H](Oc1ccc(-c3n[nH]c4ccc(C(=O)N[C@H](c5ccccn5)C5CC5)cc34)cc1)C2 [Example A213, N—((S)-cyclopropyl(pyridin-2-yl)methyl)-3-(4-(((1R,3r,5S)-8-methyl-8-azabicyclo[3.2.1]octan-3-yl)oxy)phenyl)-1H-indazole-5-carboxamide]
≤ 5 µM: IC50 [4] | IC50 [5] | IC50 [6]

CN1CCC(Oc2ccc(-c3n[nH]c4ccc(C(=O)N[C@H](c5ccccn5)C5CC5)cc34)cc2)CC1 [Example A214, (S)—N-(cyclopropyl(pyridin-2-yl)methyl)-3-(4-((1-methylpiperidin-4-yl)oxy)phenyl)-1H-indazole-5-carboxamide]
≤ 5 µM: IC50 [4] | IC50 [5] | IC50 [6]
